Results published in patent publication US9051345B2, “Metalloinsertor complexes targeted to DNA mismatches” (CALIFORNIA INSTITUTE OF TECHNOLOGY, priority 2011, dated 2015).
Peptide text beside a SMILES is read from it. * marks the point of attachment. Cbz = O=C(OCc1ccccc1)*; CH2F = FC*

How the values were obtained:
HCT116O cells [1] = test: MTT cytotoxicity assay; format: cell-based, human; details: for effect of PARP inhibitor on the selective MMR-dependent effects of the rhodium compound: with 20 μM [Rh(HDPA)2chrysi]^3+, HCT116N versus HCT116O
Description: Cytotoxicity assays were performed as described in Mosmann, 1983, J. Immunol. Methods, 65, 55-63, the entire contents of which is incorporated herein by reference. HCT116N and HCT116O cells were plated in 96-well plates at 50,000 cells/well and incubated with rhodium for the durations specified. After incubation with the indicated rhodium complexes, cells were labeled with MTT for 4 hours at 37° C. under 5% CO2 and humidified atmosphere. The resulting formazan crystals were dissolved with solubilizing reagent purchased from Roche according to the manufacturer's instructions. The dissolved formazan was quantified as the absorbance at 570 nm minus the background absorbance at 690 nm. Percent viability was determined as the ratio of the amount of formazan in the treated cells to that of the untreated cells.
In order to elucidate the mechanism of action for the cytotoxicity caused by a metalloinsertor complex of Formula I, the MTT cytotoxicity assay was repeated in the absence and presence of the pan-caspase inhibitor Z-VAD-FMK. This inhibitor works by irreversibly binding to the active site of caspases which participate in the apoptotic pathway. […] The HCT116N and HCT116O cell lines were treated with 0-30 μM of the [Rh(HDPA)2chrysi]^3+ complex for 24-72 hours. […]
In order to determine the mechanism of action for cytotoxicity caused by a metalloinsertor complex of Formula I, the MTT cytotoxicity assay was repeated in conjunction with a panel of poly-ADP ribose polymerase (PARP) inhibitors: DPQ, 3-AB, 4-AN, and ABT-888, as described in Costantino et al., 2001, J. Med. Chem., 44, 3786-3794; Purnell et al., 1980, Biochem. J. 185, 775-777; Banasik et al., 1992, J. Biol. Chem. 267, 1569-1575; and Donawho et al., 2007, Clin. Cancer Res., 13, 2728-2737, the entire contents of all of which are incorporated herein by reference. The HCT116N and HCT116O cell lines were treated with 0 or 20 μM of the [Rh(HDPA)2chrysi]^3+ complex for 72 hours, with or without one of the four inhibitors. The inhibitor 3,4-Dihydro-5[4-(1-piperindinyl)butoxy]-1(2H)-isoquinoline (DPQ) was added to a final concentration of 0, 25, or 50 μM; the inhibitor 3-aminobenzamide (3-AB) was added to a final concentration of 0, 2, or 3 mM; the inhibitor 4-amino-1,8-napthalimide (4-AN) was added to a final concentration of 0, 10, or 20 μM; and the inhibitor 2-((R)-2-Methylpyrrolidin-2-yl)-1H-benzimidazole-4-carboxamide (ABT-888) was added to a final concentration of 0, 5, or 10 μM. […] For example, in the case of the compound DPQ, this difference was 43±2.7% without inhibitor and 0.6±3.0% with inhibitor.

HCT116O cells [2] = test: ICP-MS assay, nuclear and mitochondrial rhodium accumulation; format: cell-based, human; details: 10 uM, 24 h, comparison in words
Description: To assay the subcellular localization of the rhodium complexes, an inductively coupled plasma mass spectrometry (ICP-MS) assay was used to quantify the uptake of the complexes in both whole cell extracts and nuclear and mitochondrial fractions.
Mitochondrial Rhodium Accumulation. With reference to FIG. 31B, HCT116O cells were plated in 75 cm^2 culture flasks at 2.0×10^7 cells/plate and incubated at 37° C., 5% CO2 for 24 h. Rhodium was added to 10 uM and cells were grown for an additional 24 h. The cells were then harvested by trypsinization and centrifuged for 5 min at 1,200 rpm. The supernatants were decanted, and the cell pellets were resuspended in 1 ml cold PBS (pH 7.2). The cells were centrifuged again for 5 min at 1,200 rpm. The supernatants were discarded, and the resultant pellets were resuspended in 0.5 ml mitochondrial extraction buffer (200 mM mannitol, 68 mM sucrose, 50 mM Pipes, 50 mM KCl, 5 mM EGTA, 2 mM MgCl2; 1 mM DTT and protease inhibitors were added right before use). The samples were incubated on ice for 20 min, and the suspensions were homogenized via passage through a needle and syringe (35×). The homogenized cells were then centrifuged for 5 min at 750 rpm. The supernatants were collected and spun again at 14,000 g for 10 min. The supernatants were decanted, and the resulting mitochondrial pellet was suspended in 0.8 ml H2O via probe sonication. […]

HCT116O cells [3] = details: HCT116N and HCT116O; called known; cited from earlier work

Row | Compound | effect of PARP inhibitor on the selective MMR-dependent effects of the rhodium compound (HCT116O cells [1]; MTT, 72 hours) | selective cytotoxicity, MMR-deficient HCT116O versus MMR-proficient HCT116N cells (HCT116O cells [1]) | other results
1 | NC(=O)c1cccc(N)c1 [3-AB, 3-aminobenzamide, reference compound] | completely abolished the selective MMR-dependent effects |  | 
2 | Nc1ccc2c3c(cccc13)C(=O)NC2=O [4-AN, 4-amino-1,8-napthalimide, reference compound] | completely abolished the selective MMR-dependent effects |  | 
3 | C[C@]1(c2nc3c(C(N)=O)cccc3[nH]2)CCCN1 [ABT-888, 2-((R)-2-Methylpyrrolidin-2-yl)-1H-benzimidazole-4-carboxamide, reference compound] | completely abolished the selective MMR-dependent effects |  | 
4 | O=C1NCCc2c(OCCCCN3CCCCC3)cccc21 [DPQ, 3,4-Dihydro-5[4-(1-piperindinyl)butoxy]-1(2H)-isoquinoline, reference compound] | completely abolished the selective MMR-dependent effects |  | 
5 | COC(=O)C[C@H](NC(=O)[C@H](C)NC(=O)[C@@H](NC(=O)OCc1ccccc1)C(C)C)C(=O)CF [Z-VAD-FMK, reference compound] (Cbz-Val-Ala-Asp(OMe)-CH2F) |  |  | protection from rhodium by the caspase inhibitor at 20 M (so in the source) (HCT116O cells [1]; MTT, HCT116N and HCT116O, with [Rh(HDPA)2chrysi]^3+): no protection from rhodium; protection from rhodium by the caspase inhibitor at 40 μM (HCT116O cells [1]; MTT, HCT116O, with [Rh(HDPA)2chrysi]^3+): some protection from rhodium
6 | [Rh(DPAE)2chrysi]^3+ |  | increased cytotoxicity to the MMR-deficient HCT116O cells | incubation time at which cell selective activity is exhibited (HCT116O cells [1]; HCT116O versus HCT116N): ≤ 6 h; share of cellular rhodium complex that is nuclear (HCT116O cells [2]): greater percentage
7 | [Rh(MeDPA)2chrysi]Cl3 [[Rh(MeDPA)2chrysi]^3+] |  | differential toxicity against the HCT116O cell line comparable to that of [Rh(HDPA)2chrysi]^3+ | toxicity in MMR-deficient HCT116O versus HCT116N cells at 48 hours (HCT116O cells [1]; MTT, 48 hours): enhance toxicity in the MMR-deficient HCT116O cells
8 | [Rh(NH3)4phzi]Cl3 [[Rh(NH3)4phzi]^3+] |  | selective cytotoxicities towards the MMR-deficient HCT116O cells | 
9 | [Rh(PrDPA)2chrysi]^3+ |  |  | selectivity of inhibitory effects after 72 hours (HCT116O cells [1]; MTT, HCT116N and HCT116O, 72 hours): non-selective inhibitory effects; mitochondrial rhodium content (HCT116O cells [2]): greater than that of cells incubated with [Rh(DPAE)2(chrysi)]^3+
10 | [Rh(bpy)2chrysi]^3+ |  |  | cytotoxicity (known property) (HCT116O cells [3]): non-toxic
11 | [Rh(chrysi)(phen)(DPE)]Cl3 [[Rh(chrysi)(phen)(DPE)]^2+] |  | selective cytotoxicities towards the MMR-deficient HCT116O cells | 
12 | [Rh(chrysi)(phen)(PPE)]^2+ |  | selective cytotoxicities towards the MMR-deficient HCT116O cells | 
13 | [Rh(chrysi)(phen)(PyPrO)]^2+ |  | selective cytotoxicities towards the MMR-deficient HCT116O cells | 
